Reference: patent US6531156B1, “Aqueous solven encapsulation method, apparatus and microcapsules” (Temple University, priority 1994, dated 2003)
Like-named read-outs stand apart in the source and are kept apart here.

Tests used:
[1] = spermine alginate microcapsules, 5 water washes, absorbance after dissolving microcapsules with sodium chloride
[2] = tested on: bovine rotavirus strain WC3; details: WC3 stock diluted 1:50 in 0.05N sodium salt of polymer or 0.05M amine salt, pH 7.0, versus 0.9% NaCl
[3] = pH response and retention of bromphenol blue in octadecylamine carboxymethylcellulose microcapsules; assay type: physicochemical; details: for colour of microcapsules in acid medium: rehydrated and wet stored microcapsules
Description: Step 1: A 100 milligram sample of bromphenol blue (Fisher Scientific Co.) was dissolved in 25 milliliters of a 0.1% solution of sodium carboxymethylcellulose (medium viscosity, Ruger Chemical Co.) and the resulting solution was slowly pumped (approximately 1 milliliter per minute) through a capillary drawn to a fine tip (0.1 millimeter o.d.). The emerging droplets were allowed to fall a distance of about 1 centimeter into a slowly stirred 0.1% aqueous solution of octadecylamine (Aldrich Chemical Co.) solubilized as the acetate at pH 7.0.
Step 2: The resulting approximately 1.5 millimeter diameter microcapsules were stirred for an additional hour and separated with the aid of fine netting. The microcapsules were washed with two 100 milliliter volumes of water. About half the microcapsules were stored wet and refrigerated until used. The other half of the microcapsules were lyophilized and stored dry until used.
Step 3: A few dozen of the lyophilized microcapsules were rehydrated in a few milliliters of water for an hour and were used in parallel with the wet stored microcapsules to test their sensitivity to pH. Dilutions of hydrochloric acid were made to provide solutions with pH values of 2, 3, and 4. To these hydrochloric acid solutions, a few rehydrated and a few wet stored microcapsules were added one at a time.

SMILES: O=c1[nH]cc(F)c(=O)[nH]1 [fluorouracil, Fluorouracil]
- initial amount of core material retained in the microcapsules during the repeated washings [1]: more than half

SMILES: CCCCCCCCCCCCN [dodecylamine]
- reduction in rotavirus infectivity [2]: complete ablation

SMILES: CN(C)c1ccc2nc3ccc(=[N+](C)C)cc-3sc2c1 [methylene blue]
- reduction in rotavirus infectivity [2]: Essentially no effect

SMILES: C1CNCCN1 [piperazine]
- reduction in rotavirus infectivity [2]: 30 fold

SMILES: O=S1(=O)OC(c2cc(Br)c(O)c(Br)c2)(c2cc(Br)c(O)c(Br)c2)c2ccccc21 [bromphenol blue]
- diffusion of encapsulated indicator out of the microcapsule ([3]; octadecylamine carboxymethylcellulose microcapsules, rehydrated and wet stored): did not diffuse out of it
- colour of microcapsules in acid medium ([3]; pH 3 solution): changed to yellow within a few minutes
- colour of microcapsules in acid medium ([3]; pH 4 medium): remained blue

SMILES: NCCCNCCCCNCCCN [spermine]
- reduction in rotavirus infectivity [2]: Essentially no effect
- reduction in rotavirus infectivity ([2]; listed as spermine hydrochloride): neither sodium alginate nor spermine hydrochloride reduced rotavirus infectivity
